The structures appear in SMILES notation.

The subject of assay [1] is RB981 [F19F10.5(ok888) V]. Description: Longevity assay, ets-7 gene knock-out strain. Format: in vivo, C. elegans. To be noted: 500 μM SA; 0 μM SA 16 days; p>0.05. An excerpt:
First, to validate the microarray results, the present inventors performed real-time RT-PCR on four genes, siah-1, sma-4, F13D12.6, and ets-7 (FIG. 6B). […] Messenger RNA levels for siah-1 and sma-4 were decreased by nearly 25%, as well as F13D12.6 and ets-7 were increased by nearly 25% by SA administration (p<0.05). Pathway Analysis using Gene Ontology (GO) with WEB-based Gene SeT Analysis Toolkit (WEBGESTALT <http://bioinfo.vanderbilt.edu/webgestalt/>) highlighted the metabolic process, lipid metabolic process, proteolysis pathways among many others as being altered favorably by the administration of SA (see Supplemental Data). From the array data confirmed by RT-PCR, the present inventors identified the ETS class transcription factor ETS-7 as a protein of interest. […] In order to test this, the present inventors carried out real-time RT-PCR quantification of ets-7 in non-functional SIR-2.1 mutant nematodes treated with increasing doses of SA (FIG. 6E). […]
Survival cultures were grown on 60-mm agar plates; after the late-stage L4/young adult molt, approximately 100 adults were transferred onto SA-OP50-seeded NGM plates. […] Worms were maintained at 20° C. and live worms were counted during transfer to freshly made SA-OP50-NGM agar plates every 2-3 days. Survival was scored as movement upon slight touch with the platinum wire. […]

In another assay the test system is N2 WT C. elegans. Briefly: Lipofuscin autofluorescence measurement, N2. The class given is in vivo. To be noted: 100 μM or 500 μM SA versus vehicle control; p<0.01. An excerpt:
To quantify this, the present inventors chose both a biochemical endpoint (lipofuscin autofluorescence) and a behavioral measure (pharyngeal pumping) that change predictably with aging and are associated with healthspan. The accumulation in the nematode intestinal epithelium of autofluorescent lipofuscin granules, a heterogeneous mixture of oxidized and crosslinked lipids and proteins and advanced glycation end products, is a known conserved phenomenon observed to increase with age. Visualization of lipofuscin granules is often used as an age-related assessment of healthspan. Lipofuscin autofluorescence were quantified over time (every 5 days) in N2 adult nematodes (10-20 per colony) in the presence of increasing doses of SA. SA response profiles were generated from integrating the area-under-the-curve (AUC) of fluorescent intensity as a function of time (FIG. 1C). […] For a behavioral/functional measurement of health, pharyngeal pumping rates were quantified. […] Pharyngeal pumping rates quantified in WT N2 worms established on OP50-seeded NGM agar plates with increasing concentrations of SA. The frequency of pharyngeal pumping was measured and recorded every fifth day as the animals aged.
Synchronized late L4/early young adult worms were plated on FUDR containing SA-OP50-seeded NGM plates and worms were maintained at 20° C. […] The fluorescence was calculated using ImageJ software.

For the compound `NCc1ccccc1O` [SA, salicylamine], the median lifespan in assay [1] came out at 15 days. Further, the “age-associated lipofuscin accumulation (AUC of autofluorescence over time)” value with N2 WT C. elegans is “significant reduction”.

Values taken from patent US11633370B2, “Use of scavengers of reactive gamma-ketoaldehydes to extend cell lifespan and healthspan” (Vanderbilt University, priority 2016, dated 2023).
